Assay results as given in PMC7146381, “Modulation of Adhesion Process, E-Selectin and VEGF Production by Anthocyanins and Their Metabolites in an In Vitro Model of Atherosclerosis” (Nutrients, 2020).
Marks after values point to notes of the source that are not given here.

What was measured:
[1] = test system: adhesion of monocytes to endothelial cells; set-up: method as in PMID 26873533; conditions: TNF-α 4 h, monocyte co-incubation 15 min; cited from earlier work
VEGF = assay: ELISA quantification of VEGF in cell supernatant; format: cell-based, Human; conditions: for levels of VEGF in cell supernatant: with TNF-α 100 ng mL^−1, mean ± SEM
Procedure: (§1) When the confluency reached about 80%, HUVECs were removed using trypsin ([…]) and seeded on a 0.1% gelatin pre-coated 96-well black plate at the concentration of 2 × 10^4 cells/well at 37 °C and 5% CO2. After 24 h incubation, THP-1 (2 × 10^6) cells were labelled with CellTracker^TM Green CMFDA (1 µM) in 1 mL serum-free RPMI medium (containing 1% HEPES, 1% sodium pyruvate and 0.1% gentamicin) for 30 min. Successively, cells were washed twice, re-suspended in HUVEC medium at a final concentration of 2 × 10^5 cells mL^−1 and added to HUVECs. The adhesion process was induced for 24 h with 100 ng mL^−1 of TNF-α. Then, 200 μL of new medium containing the single compounds (0.02 µM, 0.2 µM, 2 µM and 20 µM for Peo and Pet-3-glc and 0.05 µM, 0.5 µM, 5 µM and 50 µM for VA and MetGA) was added and the cells were further incubated for 24 h. Medium from each well was collected and stored at −80 °C until ELISA analysis. Cells were rinsed twice with 200 µL of Hanks balanced salt solution and the fluorescence (excitation: 485 nm, emission: 538 nm) associated with the number of labeled THP-1 cells attached to the HUVECs was measured by a spectrophotometer (mod. F200 Infinite, TECAN Milan, Italy). Each compound and concentration were tested in quintuplicate in three independent experiments.
(§2) At the end of the experiment, the recovered cell culture supernatants were used to quantify the concentrations of soluble VCAM-1 (Cat# EK0537, BosterBio), E-selectin (Cat# MBS355367, MyBioSource) and VEGF (Cat# V3-200-820-VEF, Vinci-Biochem). The analysis was performed using ELISA kits according to the manufacturer’s instruction. The analyses were conducted in quadruplicate and the results derived from three independent experiments.

[2] = Cytotoxicity, Trypan blue assay on HUVECs; format: cell-based, Human; conditions: human
Procedure: (§3) The cytotoxicity of the compounds was tested by Trypan blue and (3-(4,5-dimethylthiazol-2-yl)-2, 5-diphenyltetrazolium bromide (MTT) assay on HUVECs, according to the manufacturer’s instructions. Triton X-100 was used as positive control. Two independent experiments were performed in which each compound and concentration was tested in quadruplicate.

E-selectin = assay: ELISA quantification of E-selectin in cell supernatant; format: cell-based, Human; conditions: for levels of E-selectin in cell supernatant: with TNF-α 100 ng mL^−1, mean ± SEM; for change of E-selectin levels compared to the negative control (without TNF-α): p < 0.05
Procedure: as §1, §2

[3] = Cytotoxicity, MTT assay on HUVECs; format: cell-based; conditions: human, with TNF-α stimulus, mean ± SEM, read-out: Percentage of cell viability, MTT assay
Procedure: as §3

THP-1 adhesion to HUVECs = assay: THP-1 (monocytes) adhesion to TNF-α-activated HUVECs, fluorescence of labelled THP-1; format: cell-based, Human; conditions: 24 h after TNF-α 100 ng mL^−1
Procedure: as §1

soluble VCAM-1 = assay: ELISA quantification of soluble VCAM-1 in cell supernatant; format: cell-based, Human; conditions: with TNF-α 100 ng mL^−1, mean ± SEM
Procedure: as §1, §2

HUVECs = assay: Cytotoxicity, Trypan blue assay on HUVECs; format: cell-based, Human; conditions: positive control, HUVEC cells, data not shown; p < 0.0001 vs cells with and without TNF-α (99%)
Procedure: as §3

[4] = 0.02 µM, controls 120-121 (no TNF-α), 170-172 (TNF-α)
[5] = 0.02 µM, controls 160-164 (no TNF-α), 316-317 (TNF-α)
[6] = 0.02 µM, controls 59-64 (no TNF-α), 307-316 (TNF-α)

COc1cc(C(=O)O)ccc1O [VA, vanillic acid]
concentrations with significant reduction in the adhesion of monocytes to endothelial cells [1]: 0.2 μM and 2 µM only | change of VEGF concentrations vs TNF-α (VEGF; 0.05 μM): −12% | levels of VEGF in cell supernatant (VEGF; 0.05 µM): 149 ± 3.0 ^c | change of VEGF concentrations vs TNF-α (VEGF; 0.5 μM): −17% | levels of VEGF in cell supernatant (VEGF; 0.5 µM): 141 ± 8.3 ^c | change of VEGF concentrations vs TNF-α (VEGF; 5 μM): −13% | levels of VEGF in cell supernatant (VEGF; 5 µM): 147 ± 4.9 ^c | change of VEGF concentrations vs TNF-α (VEGF; 50 μM): −21% | levels of VEGF in cell supernatant (VEGF; 50 µM): 135 ± 5.7 ^c | viability at 0.05 µM [2]: 100% | viability at 0.5 µM [2]: 99.7 ± 0.33% | viability at 5 µM [2]: 99.7 ± 0.66% | viability at 50 µM [2]: 99.3 ± 0.67% | levels of E-selectin in cell supernatant (E-selectin; 0.05 µM): 312 ± 14.1 ^b | levels of E-selectin in cell supernatant (E-selectin; 0.5 µM): 312 ± 11.2 ^b | levels of E-selectin in cell supernatant (E-selectin; 5 µM): 305 ± 7.4 ^b | levels of E-selectin in cell supernatant (E-selectin; 50 µM): 95 ± 13.2 ^c | change of E-selectin levels with respect to the positive TNF-α control (E-selectin; 50 μM, p < 0.001): −70% | viability at 50 µM ([3]; 50 µM): 99.7 ± 0.32% | change of THP-1 adhesion to HUVECs compared to the TNF-α treatment (THP-1 adhesion to HUVECs; 50 μM, p < 0.001): −21%

COc1cc(-c2[o+]c3cc(O)cc(O)c3cc2O[C@@H]2O[C@H](CO)[C@@H](O)[C@H](O)[C@H]2O)ccc1O [Peo-3-glc, peonidin-3-glucoside]
concentrations with significant reduction in the adhesion of monocytes to endothelial cells [1]: effective only at the lowest concentration | levels of VEGF in cell supernatant (VEGF; [4]): 120 ± 6.9 ^a | change of VEGF concentrations vs TNF-α (VEGF; 0.02 μM, p < 0.001): −27% | levels of VEGF in cell supernatant (VEGF; 0.2 µM): 123 ± 1.7 ^a | change of VEGF concentrations vs TNF-α (VEGF; 0.2 μM, p < 0.001): −28% | levels of VEGF in cell supernatant (VEGF; 2 µM): 123 ± 6.0 ^a | change of VEGF concentrations vs TNF-α (VEGF; 2 μM, p < 0.001): −30% | levels of VEGF in cell supernatant (VEGF; 20 µM): 119 ± 2.6 ^a | change of VEGF concentrations vs TNF-α (VEGF; 20 μM, p < 0.001): −30% | viability at 0.02 µM [2]: 99.7 ± 0.33% | viability at 0.2 µM [2]: 100% | viability at 2 µM [2]: 99.3 ± 0.67% | viability at 20 µM [2]: 99.3 ± 0.33% | levels of E-selectin in cell supernatant (E-selectin; [5]): 143 ± 4.3 ^a | change of E-selectin production vs TNF-α control (E-selectin; 0.02 μM, p < 0.001): −55% | levels of E-selectin in cell supernatant (E-selectin; 0.2 µM): 108 ± 5.3 ^c | change of E-selectin production vs TNF-α control (E-selectin; 0.2 μM, p < 0.001): −66% | change of E-selectin levels compared to the negative control (without TNF-α) (E-selectin; 0.2 μM): −32% | levels of E-selectin in cell supernatant (E-selectin; 2 µM): 109 ± 7.2 ^c | change of E-selectin production vs TNF-α control (E-selectin; 2 μM, p < 0.001): −65% | change of E-selectin levels compared to the negative control (without TNF-α) (E-selectin; 2 μM): −31% | levels of E-selectin in cell supernatant (E-selectin; 20 µM): 76 ± 8.4 ^c | change of E-selectin production vs TNF-α control (E-selectin; 20 μM, p < 0.001): −76% | change of E-selectin levels compared to the negative control (without TNF-α) (E-selectin; 20 µM): −53% | viability at 20 µM [3]: 98.5 ± 0.12% | levels of sVCAM-1 in cell supernatant (soluble VCAM-1; [6]): 107 ± 15 ^c | levels of sVCAM-1 in cell supernatant (soluble VCAM-1; 0.2 µM): 104 ± 16 ^c | levels of sVCAM-1 in cell supernatant (soluble VCAM-1; 2 µM): 186 ± 12 ^c | levels of sVCAM-1 in cell supernatant (soluble VCAM-1; 20 µM): 149 ± 24 ^c | change of THP-1 adhesion to HUVECs compared to the TNF-α treatment (THP-1 adhesion to HUVECs; 0.02 µM, p < 0.0001): −37% | change of THP-1 adhesion to HUVECs compared to the TNF-α treatment (THP-1 adhesion to HUVECs; 0.2 µM, p < 0.0001): −24% | change of THP-1 adhesion to HUVECs compared to the TNF-α treatment (THP-1 adhesion to HUVECs; 2 µM, p < 0.0001): −30% | change of THP-1 adhesion to HUVECs compared to the TNF-α treatment (THP-1 adhesion to HUVECs; 20 μM, p < 0.0001): −47%

OC[C@H]1O[C@@H](Oc2cc3c(O)cc(O)cc3[o+]c2-c2cc(O)c(O)c(O)c2)[C@H](O)[C@@H](O)[C@@H]1O [delphinidin-3-glucoside]
concentrations with significant reduction in the adhesion of monocytes to endothelial cells [1]: all the concentrations tested

O=C(O)c1ccc(O)c(O)c1 [protocatechuic acid]
concentrations with significant reduction in the adhesion of monocytes to endothelial cells [1]: all concentration tested

Triton X-100 [reference compound]
cell viability reduced up to (HUVECs): 20%

COc1cc(/C=C/C(=O)O)ccc1O [ferulic, ferulic acid]
concentrations with significant reduction in the adhesion of monocytes to endothelial cells [1]: only effective at 1 μM and 2 µM

Oc1cc(O)c2cc(O[C@@H]3OC[C@H](O)[C@H](O)[C@H]3O)c(-c3ccc(O)c(O)c3)[o+]c2c1 [arabinoside]
concentrations with significant reduction in the adhesion of monocytes to endothelial cells [1]: 0.1 to 2 µM

COc1cc(-c2[o+]c3cc(O)cc(O)c3cc2O[C@@H]2O[C@H](CO)[C@@H](O)[C@H](O)[C@H]2O)cc(O)c1O [Pet-3-glc, petunidin-3-glucoside]
levels of VEGF in cell supernatant (VEGF; [4]): 129 ± 10 ^a | change of VEGF concentrations vs TNF-α (VEGF; 0.02 μM, p < 0.001): −24% | levels of VEGF in cell supernatant (VEGF; 0.2 µM): 123 ± 7.4 ^a | change of VEGF concentrations vs TNF-α (VEGF; 0.2 μM, p < 0.001): −27% | levels of VEGF in cell supernatant (VEGF; 2 µM): 123 ± 2.9 ^a | change of VEGF concentrations vs TNF-α (VEGF; 2 μM, p < 0.001): −28% | levels of VEGF in cell supernatant (VEGF; 20 µM): 117 ± 9.9 ^a | change of VEGF concentrations vs TNF-α (VEGF; 20 μM, p < 0.001): −30% | viability at 0.02 µM [2]: 110% | viability at 0.2 µM [2]: 97 ± 1% | viability at 2 µM [2]: 97.7 ± 0.33% | viability at 20 µM [2]: 100% | levels of E-selectin in cell supernatant (E-selectin; [5]): 115 ± 7.5 ^c | change of E-selectin production vs TNF-α control (E-selectin; 0.02 μM, p < 0.001): −64% | change of E-selectin levels compared to the negative control (without TNF-α) (E-selectin; 0.02 µM): −28% | levels of E-selectin in cell supernatant (E-selectin; 0.2 µM): 123 ± 11.8 ^a,c | change of E-selectin production vs TNF-α control (E-selectin; 0.2 μM, p < 0.001): −60% | levels of E-selectin in cell supernatant (E-selectin; 2 µM): 104 ± 6.3 ^c | change of E-selectin production vs TNF-α control (E-selectin; 2 μM, p < 0.001): −67% | change of E-selectin levels compared to the negative control (without TNF-α) (E-selectin; 2 μM): −36% | levels of E-selectin in cell supernatant (E-selectin; 20 µM): 88 ± 12.1 ^c | change of E-selectin production vs TNF-α control (E-selectin; 20 μM, p < 0.001): −72% | change of E-selectin levels compared to the negative control (without TNF-α) (E-selectin; 20 µM): −45% | viability at 20 µM [3]: 94.4 ± 0.45% | levels of sVCAM-1 in cell supernatant (soluble VCAM-1; [6]): 311 ± 13 ^b | levels of sVCAM-1 in cell supernatant (soluble VCAM-1; 0.2 µM): 297 ± 15 ^b | levels of sVCAM-1 in cell supernatant (soluble VCAM-1; 2 µM): 300 ± 14 ^b | levels of sVCAM-1 in cell supernatant (soluble VCAM-1; 20 µM): 83 ± 10 ^c | change of THP-1 adhesion to HUVECs compared to the TNF-α treatment (THP-1 adhesion to HUVECs; 0.02 µM, p < 0.0001): −37% | change of THP-1 adhesion to HUVECs compared to the TNF-α treatment (THP-1 adhesion to HUVECs; 0.2 µM, p < 0.0001): −33% | change of THP-1 adhesion to HUVECs compared to the TNF-α treatment (THP-1 adhesion to HUVECs; 2 µM, p < 0.0001): −33% | change of THP-1 adhesion to HUVECs compared to the TNF-α treatment (THP-1 adhesion to HUVECs; 20 μM, p < 0.0001): −45%

OC[C@H]1O[C@@H](Oc2cc3c(O)cc(O)cc3[o+]c2-c2ccc(O)c(O)c2)[C@H](O)[C@@H](O)[C@H]1O [galactoside]
concentrations with significant reduction in the adhesion of monocytes to endothelial cells [1]: 0.1 to 2 µM

OC[C@H]1O[C@@H](Oc2cc3c(O)cc(O)cc3[o+]c2-c2ccc(O)c(O)c2)[C@H](O)[C@@H](O)[C@@H]1O [cyanidin-3-glucoside]
concentrations with significant reduction in the adhesion of monocytes to endothelial cells [1]: 0.1 to 2 µM

O=C(O)CNC(=O)c1ccccc1 [hippuric acids, hippuric acid]
concentrations with significant reduction in the adhesion of monocytes to endothelial cells [1]: only effective at 1 μM and 2 µM
